Assay results: patent publication US11821905B2, “Biomarkers of vascular disease” (Arterez, Inc., priority 2015, dated 2023)

How the values were obtained:
Assay type in all cases: in vivo, mouse
[1] = tested on: Hyaluronan Synthase 1 (HAS-1); test: Hyaluronan Synthase 1 (HAS-1) ELISA on plasma, murine model of atherosclerosis, Example 2; details: FIG. 10; high fat diet, PCB on Day 1 and 3, sacrificed at Day 4
Description: (§1) A novel model of atherosclerosis in mice was developed, using a high fat diet and administration of a polychlorinated biphenyl (3,3′,4,4′-Tetrachlorobiphenyl; PCB-77) that promotes both obesity and atherosclerosis and the additional oral administration of a bacteria responsible for tooth decay, Porphyromonas gingivalis 381 (ATCC 33277). The objective of this study was to examine the association of biomarkers with the murine model of atherosclerosis in mice treated with a strategy to protect and repair endothelial glycocalyx. Eighty-four (84) ten week old male C57/BI6 mice were obtained from Jackson Laboratories. Thirty-two mice were raised from 6 weeks on a regular diet and served as controls, and the remaining mice were raised on a 60% fat diet (D12451, DIO series diet, Opensource Diets). 3,3′,4,4′-Tetrachlorobiphenyl (PCB-77) was obtained from Neosyn Laboratories. The dry chemical was suspended in 15.22 ml of corn oil to deliver 200 μmol/kg in 0.2 ml by gavage per mouse.
(§2) Four test kits were used to analyze the collected plasma samples: Heparan Sulfate ELISA and Hyaluronan Synthase 1 (HAS-1) ELISA (Antibodies-Online), Total Plasminogen Activation Inhibitor-1 (PAI-1) ELISA (Molecular-Innovive) and Syndecan-1 (SDC1) ELISA (USCN, Houston, Tex.). […]

[2] = tested on: C57/BI6 mice; test: Histology disease score (Oil Red O, plaque, fibrous tissue, inflammation), Example 1; details: FIG. 9, gavage 150 μmol/kg, sacrifice days 10, 15, 20
Procedure: For the pilot study, 48 ten week old male C57/BI6 mice were obtained from Jackson Laboratories. Three mice were raised from 6 weeks on a regular diet and served as controls, and the remaining 45 were raised on a 60% fat diet (D12451, DIO series diet, Opensource Diets). For the bacterial dosage test, 16 ten week old male C57/BI6 mice were divided into 4 treatment groups and maintained on a normal diet.
3,3′,4,4′-Tetrachlorobiphenyl (PCB-77) was obtained from Neosyn Laboratories. 100 mg of the dry chemical was suspended in 15.22 ml of corn oil to deliver 150 μmol/kg in 0.2 ml per mouse. Porphyromonas gingivalis 381 (ATCC 33277) was obtained from ATCC. The bacteria were stored frozen prior to use. […] A microplate reader was used to measure the optical density at 600 nm to determine the concentration of bacteria. […]
The hearts were prepared as frozen sections. […] Multiple 10 μm sections at the level of the aortic sinus were analyzed for the presence of oil Red O lipid staining, plaque size, amount of fibrous tissue, and inflammation. The percentage of the lumen occupied by the first three features was calculated using Image Pro Plus. […] The level of inflammation in each section was scored on the following scale: 0=no inflammatory cells observed, 1=few macrophages with no giant cells, 2=foam cells present, 3=foam cells with cholesterol, 4=foam cells, giant cells, and cholesterol present. […]

[3] = tested on: Syndecan-1 (SDC1); test: Syndecan-1 (SDC1) ELISA on plasma, murine model of atherosclerosis, Example 2; details: FIG. 13; mice treated PCB-77 and Porphyromonas gingivalis; high degree of variability
Description: as §1, §2

[4] = tested on: Heparan Sulfate (HS); test: Heparan Sulfate ELISA on plasma, murine model of atherosclerosis, Example 2; details: FIG. 11; mice treated PCB-77 and Porphyromonas gingivalis
Description: as §1, §2

[5] = tested on: C57/BI6 mice; test: Pathology of arterial wall, murine model of atherosclerosis, Example 2; details: FIGS. 14A, 14B; positive control group (High fat diet, PCB)
Description: as §1
The mice were sacrificed on days 4, 11, or 18 according to the experimental plan (three each from groups). The animals were anesthetized by intraperitoneal injection of 90 mg/kg Ketamine and 8 mg/kg Xylazine, and Isoflurane gas anesthesia. Blood was collected by retro-orbital bleeding or from the heart and mixed with 50 mg/ml heparin to prevent clotting. […]

Clc1ccc(-c2ccc(Cl)c(Cl)c2)cc1Cl [PCB-77, 3,3′,4,4′-Tetrachlorobiphenyl]
HAS-1 levels [1]: highest HAS-1 levels | average disease scores for each group and time point (inflammation and plaque) [2]: most significant risk factor to producing inflammation and plaque | SDC-1 level [3]: elevation in SDC-1 | Heparan Sulfate (HS) level [4]: elevation in HS | pathology of arterial wall [5]: presence of a pathology consistent with plaque
